Active and inactive are the calls of the source. No cut-off for these calls is given here.
Assays:
BV-2 [1] = experiment: Cytotoxicity against mouse BV2 cells assessed as reduction in cell viability at 20 uM after 24 hrs by XTT assay; assay type: cell-based; conditions: bv-2, 24 h
BV-2 [2] = experiment: Antiinflammatory activity in mouse BV2 cells assessed as reduction in LPS-induced NO-production at 20 uM after 24 hrs by Griess reagent based assay relative to control; assay type: functional
BV-2 [3] = experiment: Antiinflammatory activity in mouse BV2 cells assessed as LPS-induced NO-production at 20 uM after 24 hrs by Griess reagent based assay relative to control; assay type: functional
BV-2 [4] = experiment: Antiinflammatory activity in mouse BV2 cells assessed as LPS-induced TNFalpha-production at 20 uM after 24 hrs by Griess reagent based assay relative to control; assay type: functional
[5] = Cytotoxicity against mouse BV2 cells assessed as cell viability at 20 uM after 24 hrs by XTT assay relative to control; assay type: cell-based, BV-2; conditions: read-out: Activity

| Structure (SMILES) | Activity (BV-2 [1]) | inhibition (BV-2 [2]) | Activity (BV-2 [3]) [%] | Activity (BV-2 [4]) | inhibition at 20 µM (BV-2 [2]) [%] | viability at 24 h, 20 µM [5] [%] |
| --- | --- | --- | --- | --- | --- | --- |
| COc1ccc2c(=O)c(-c3ccc(NS(=O)(=O)c4ccccc4Br)cc3)coc2c1 | Non-Toxic | Active | 26 |  |  |  |
| CNS(=O)(=O)c1ccccc1I | Non-Toxic |  |  |  |  |  |
| O=S(=O)(Nc1ccccc1)c1ccccc1I | Non-Toxic |  |  |  |  |  |
| COc1ccc2c(=O)c(C3=Cc4ccccc4S(=O)(=O)N3)coc2c1 | Toxic | Active | 24 |  |  |  |
| CNS(=O)(=O)c1ccccc1Br | Non-Toxic |  |  |  |  |  |
| COc1ccc2c(=O)c(-c3ccc(NS(=O)(=O)c4ccccc4C#Cc4ccccc4)cc3)coc2c1 | Non-Toxic | Active |  |  |  |  |
| COc1ccc2c(=O)c(C3=Cc4ccccc4S(=O)(=O)N3c3ccccc3)coc2c1 | Non-Toxic | Active |  |  |  |  |
| COc1ccc(CNS(=O)(=O)c2ccccc2C#Cc2coc3cc(OC)ccc3c2=O)cc1 |  | Active |  |  |  |  |
| COc1ccc2c(=O)c(C#C[Si](C)(C)C)coc2c1 | Non-Toxic | Active | 21 |  |  |  |
| COc1ccc(CN2C(c3coc4cc(OC)ccc4c3=O)=Cc3ccccc3S2(=O)=O)cc1 | Non-Toxic | Active | 41 | 34% |  |  |
| O=S(=O)(Nc1ccccc1)c1ccccc1Br | Non-Toxic |  |  |  |  |  |
| COc1ccc2c(=O)c(C#Cc3ccccc3S(=O)(=O)Nc3ccccc3)coc2c1 | Toxic | Active |  |  |  |  |
| COc1ccc2c(=O)c(C3=Cc4ccccc4S(=O)(=O)N3C)coc2c1 | Non-Toxic | Active |  |  |  |  |
| O=c1c(-c2ccc(O)cc2)coc2cc(O)ccc12 [DAIDZEIN] | Non-Toxic |  |  |  | 35 | > 80 |
| COc1ccc(-c2coc3cc(O)cc(O)c3c2=O)cc1 [BIOCHANIN] | Non-Toxic |  |  | 33% | 41 | 76 |
| COc1ccc2c(=O)c(-c3ccc(N)cc3)coc2c1 | Non-Toxic |  | 42 | Active |  |  |
| COc1ccc2c(=O)c(-c3ccc([N+](=O)[O-])cc3)coc2c1 | Non-Toxic | inactive |  |  |  |  |
| COc1ccc2c(=O)c(I)coc2c1 | Non-Toxic |  | 21 | 26% |  |  |
| COc1ccc(CNS(=O)(=O)c2ccccc2I)cc1 | Non-Toxic |  |  |  |  |  |
| COc1ccc2c(=O)c(-c3ccc(N4C(c5ccccc5)=Cc5ccccc5S4(=O)=O)cc3)coc2c1 | Toxic | Active |  |  |  |  |
| C#Cc1coc2cc(OC)ccc2c1=O |  |  |  |  |  | 49 |

Source: ChEMBL document CHEMBL4715887, “Synthesis of novel isoflavone/benzo-δ-sultam hybrids as potential anti-inflammatory drugs” (Bioorg Med Chem Lett, 2021)
